# Test results taken from patent US20230143604A1, “QW DOSING OF GIP RECEPTOR AGONIST PEPTIDE COMPOUNDS AND USES THEREOF” (TAKEDA PHARMACEUTICAL COMPANY LIMITED, priority 2020, published 2023).
# Starred links: 1 amine or outer side, 2 acyl side, 3 side chain; linkers in the order of their positions; H or OH if unused. Non-standard residues stand in square brackets, D forms with d. Residues, ends and D or L forms follow the SMILES beside them. Groups on a side chain read outwards from the residue. *: point of attachment. C20 diacid = O=C(O)CCCCCCCCCCCCCCCCCCC(=O)*; C18 diacid = O=C(O)CCCCCCCCCCCCCCCCC(=O)*; C17 diacid = O=C(O)CCCCCCCCCCCCCCCC(=O)*; γGlu = O=C(O)[C@H](CCC(=O)[*:2])N[*:1]; NMeY = CN[C@@H](Cc1ccc(O)cc1)C(=O)O; AEEA = NCCOCCOCC(=O)O; Aib = CC(C)(N)C(=O)O
# Experiments:
# [1] = Solubility in phosphate buffer pH 7.4
# In short: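 3 mg of peptide treated with 100 μL portions of 200 mM phosphate buffer pH 7.4, sonicating/vortexing up to 1 min, with further buffer added until fully dissolved. Solubility then quantified by HPLC.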
# [2] = Human plasma protein binding (PPB); assay type: in vitro ADME; conditions: for fraction unbound at 30 min, 1000 nmol/L / fraction unbound: both sexes, pH 7.4, human plasma, 1000 nmol/L peptide, ultracentrifugation, read-out: Human PPB (FUplasma)
# Experimental: Stock solutions: (1000 μM) of the peptides are prepared in DMSO.
# Human plasma (mixed gender; containing K2-EDTA as anti-coagulant; pre-adjusted to pH 7.4—NB alternative species may be used) is spiked individually with each test peptide (1000 nmol/L), sampled for analysis and then incubated (n=4) at 37° C. in a water bath for 30 minutes. Following the incubation period, the plasma is sampled for analysis, then transferred to ultracentrifugation tubes and centrifuged (n=3) at […] and 4° C. for 3 hours, after which the supernatant is sampled for analysis. An additional aliquot of the supernatant is taken at the end of the centrifugation period to determine the total protein concentration. An aliquot of the incubated plasma will be stored at 4° C. for 3 hours and then sampled for analysis. At the point of sampling, all samples are matrix-matched, treated with ice-cold acetonitrile/methanol (4:1 (vfv)) containing internal standard, centrifuged al 2000 g and 4° C. for 10 minutes and stored prior to LC-MS/MS analysis. An appropriate positive control compound control will be incubated and centrifuged in parallel; control plasma is also centrifuged to generate samples for matrix-matching. Fraction unbound in plasma (Fuplasma) values is determined by comparison of the analyte response in plasma to the analyte response in the supernatant, determined via peak area response ratios.
# The samples are analyzed by LC-MS/MS using a 6500 (or equivalent) triple quadrupole mass spectrometer (AB Sciex) coupled to an appropriate Liquid Chromatography (LC) system. Protein binding and stability values are determined via peak area ratios using multiple reaction monitoring (MRM) parameters following compound optimisation. Multiple reaction monitoring (MRM) is a highly sensitive method of targeted mass spectrometry (MS) that can be used to selectively detect and quantify peptides based on the screening of specified precursor peptide-to-fragment ion transitions.
# [3] = Dog plasma protein binding (PPB); assay type: in vitro ADME; conditions: pH 7.4; fraction unbound; dog serum; read-out: Dog PPB (FUplasma)
# Excerpt: Dog PPB values presented below are obtained essentially as described for Human PPB samples, with the difference being that dog serum is used instead of human serum. Table 10 is provided with the values of (Fu,plasma) as fraction unbound expressed as a percentage compared to the percent bound. i.e. if the value is 0.0123, then the fraction unbound is […], which is 1.23% of the peptide is unbound and 98.77% is bound in plasma. Methods and analysis for performing the dog PPB protocol and results are the same as noted herein as for the Human PPB protocol and analysis.
# [4] = pH 7.4, aqueous buffer, pH 7.4 Phosphate Buffer - Solubility, 200 mM Phosphate buffer pH 7.4
# [5] = pH 7.4, solubility in phosphate buffer at pH 7.4, 200 mM phosphate buffer pH 7.4
smiles,measurement,setting,value
CC[C@H](C)[C@H](NC(=O)[C@H](Cc1ccccc1)NC(=O)[C@@H](NC(=O)CNC(=O)[C@H](CCC(=O)O)NC(=O)C(C)(C)NC(=O)[C@H](Cc1ccc(O)cc1)NC)[C@@H](C)O)C(=O)N[C@@H](CO)C(=O)N[C@@H](CC(=O)O)C(=O)N[C@@H](Cc1ccc(O)cc1)C(=O)N[C@@H](CO)C(=O)N[C@H](C(=O)NC(C)(C)C(=O)N[C@@H](CC(C)C)C(=O)N[C@@H](CC(=O)O)C(=O)N[C@@H](CCCNC(=N)N)C(=O)NC(C)(C)C(=O)N[C@@H](C)C(=O)N[C@@H](CCC(N)=O)C(=O)NC(C)(C)C(=O)N[C@@H](CCCCNC(=O)COCCOCCNC(=O)COCCOCCNC(=O)CC[C@H](NC(=O)CC[C@H](NC(=O)CCCCCCCCCCCCCCCC(=O)O)C(=O)O)C(=O)O)C(=O)N[C@@H](Cc1ccccc1)C(=O)N[C@H](C(=O)N[C@@H](CC(N)=O)C(=O)N[C@@H](Cc1c[nH]c2ccccc12)C(=O)N[C@@H](CC(C)C)C(=O)N[C@@H](CC(C)C)C(=O)N[C@@H](C)C(=O)N[C@@H](CCC(N)=O)C(=O)N[C@@H](CCCNC(=N)N)C(=O)N1CCC[C@H]1C(=O)N[C@@H](CO)C(=O)N[C@@H](CO)C(=O)NCC(=O)N[C@@H](C)C(=O)N1CCC[C@H]1C(=O)N1CCC[C@H]1C(=O)N1CCC[C@H]1C(=O)N[C@@H](CO)C(N)=O)C(C)C)[C@@H](C)CC [Compound 13] (H-[NMeY][Aib]EGTFISDYSI[Aib]LDR[Aib]AQ[Aib]K([AEEA-AEEA-γGlu-γGlu-C17 diacid])FVNWLLAQRPSSGAPPPS-NH2),solubility,[1]; [4],≥ 30 mg/mL
same,solubility,[1]; [5],≥ 15 mg/mL
same,"fraction unbound at 30 min, 1000 nmol/L",[2],< 0.002
same,"fraction unbound at 30 min, 1000 nmol/L",[3],< 0.002
CC[C@H](C)[C@H](NC(=O)[C@H](CO)NC(=O)[C@H](Cc1ccc(O)cc1)NC(=O)[C@H](CC(=O)O)NC(=O)[C@H](CO)NC(=O)[C@@H](NC(=O)[C@H](Cc1ccccc1)NC(=O)[C@@H](NC(=O)CNC(=O)[C@H](CCC(=O)O)NC(=O)C(C)(C)NC(=O)[C@H](Cc1ccc(O)cc1)NC)[C@@H](C)O)[C@@H](C)CC)C(=O)N[C@@H](C)C(=O)N[C@@H](CC(C)C)C(=O)N[C@@H](CC(=O)O)C(=O)N[C@@H](CCCNC(=N)N)C(=O)NC(C)(C)C(=O)N[C@@H](CCCCNC(=O)COCCOCCNC(=O)COCCOCCNC(=O)CC[C@H](NC(=O)CC[C@H](NC(=O)CCCCCCCCCCCCCCCC(=O)O)C(=O)O)C(=O)O)C(=O)N[C@@H](CCC(N)=O)C(=O)NC(C)(C)C(=O)N[C@@H](CC(N)=O)C(=O)N[C@@H](Cc1ccccc1)C(=O)N[C@H](C(=O)N[C@@H](CC(N)=O)C(=O)N[C@@H](Cc1c[nH]c2ccccc12)C(=O)N[C@@H](CC(C)C)C(=O)N[C@@H](CC(C)C)C(=O)N[C@@H](C)C(=O)N[C@@H](CCC(N)=O)C(=O)N[C@@H](CO)C(=O)N1CCC[C@H]1C(=O)N[C@@H](CO)C(=O)N[C@@H](CO)C(=O)NCC(=O)N[C@@H](C)C(=O)N1CCC[C@H]1C(=O)N1CCC[C@H]1C(=O)N1CCC[C@H]1C(=O)N[C@@H](CO)C(N)=O)C(C)C [Compound 11] (H-[NMeY][Aib]EGTFISDYSIALDR[Aib]K([AEEA-AEEA-γGlu-γGlu-C17 diacid])Q[Aib]NFVNWLLAQSPSSGAPPPS-NH2),solubility,[1]; [4],≥ 30 mg/mL
same,solubility,[1]; [5],≥ 15 mg/mL
same,"fraction unbound at 30 min, 1000 nmol/L",[2],0.0038
same,free unbound peptide in human plasma (in words),[2]; judged for once per week (QW) dosing,optimum free unbound peptide
same,"fraction unbound at 30 min, 1000 nmol/L",[3],≤ 0.0024
CC[C@H](C)[C@H](NC(=O)[C@H](CO)NC(=O)[C@H](Cc1ccc(O)cc1)NC(=O)[C@H](CC(=O)O)NC(=O)[C@H](CO)NC(=O)[C@@H](NC(=O)[C@H](Cc1ccccc1)NC(=O)[C@@H](NC(=O)CNC(=O)[C@H](CCC(=O)O)NC(=O)C(C)(C)NC(=O)[C@H](Cc1ccc(O)cc1)NC)[C@@H](C)O)[C@@H](C)CC)C(=O)N[C@@H](C)C(=O)N[C@@H](CC(C)C)C(=O)N[C@@H](CC(=O)O)C(=O)N[C@@H](CCCNC(=N)N)C(=O)NC(C)(C)C(=O)N[C@@H](C)C(=O)N[C@@H](CCC(N)=O)C(=O)NC(C)(C)C(=O)N[C@@H](CCCCNC(=O)COCCOCCNC(=O)COCCOCCNC(=O)CC[C@H](NC(=O)CC[C@H](NC(=O)CCCCCCCCCCCCCCCCCCC(=O)O)C(=O)O)C(=O)O)C(=O)N[C@@H](Cc1ccccc1)C(=O)N[C@H](C(=O)N[C@@H](CC(N)=O)C(=O)N[C@@H](Cc1c[nH]c2ccccc12)C(=O)N[C@@H](CC(C)C)C(=O)N[C@@H](CC(C)C)C(=O)N[C@@H](C)C(=O)N[C@@H](CCC(N)=O)C(=O)N[C@@H](CCCCN)C(=O)NCC(=O)O)C(C)C [Compound 39] (H-[NMeY][Aib]EGTFISDYSIALDR[Aib]AQ[Aib]K([AEEA-AEEA-γGlu-γGlu-C20 diacid])FVNWLLAQKG-OH),solubility,[1]; pH 7.4,≥ 15 mg/mL
same,solubility,"[1]; pH 7.4, aqueous buffer",≥ 30 mg/mL
same,fraction unbound,[2],0.0112
same,fraction unbound,[3],0.0015
CC[C@H](C)[C@H](NC(=O)[C@H](CO)NC(=O)[C@H](Cc1ccc(O)cc1)NC(=O)[C@H](CC(=O)O)NC(=O)[C@H](CO)NC(=O)[C@@H](NC(=O)[C@H](Cc1ccccc1)NC(=O)[C@@H](NC(=O)CNC(=O)[C@H](CCC(=O)O)NC(=O)C(C)(C)NC(=O)[C@H](Cc1ccc(O)cc1)NC)[C@@H](C)O)[C@@H](C)CC)C(=O)N[C@@H](C)C(=O)N[C@@H](CC(C)C)C(=O)N[C@@H](CC(=O)O)C(=O)N[C@@H](CCCNC(=N)N)C(=O)NC(C)(C)C(=O)N[C@@H](C)C(=O)N[C@@H](CCC(N)=O)C(=O)NC(C)(C)C(=O)N[C@@H](CCCCNC(=O)COCCOCCNC(=O)COCCOCCNC(=O)CC[C@H](NC(=O)CC[C@H](NC(=O)CCCCCCCCCCCCCCCCC(=O)O)C(=O)O)C(=O)O)C(=O)N[C@@H](Cc1ccccc1)C(=O)N[C@H](C(=O)N[C@@H](CC(N)=O)C(=O)N[C@@H](Cc1c[nH]c2ccccc12)C(=O)N[C@@H](CC(C)C)C(=O)N[C@@H](CC(C)C)C(=O)N[C@@H](C)C(=O)N[C@@H](CCC(N)=O)C(=O)N[C@@H](CCCNC(=N)N)C(=O)NCC(=O)O)C(C)C [Compound 37] (H-[NMeY][Aib]EGTFISDYSIALDR[Aib]AQ[Aib]K([AEEA-AEEA-γGlu-γGlu-C18 diacid])FVNWLLAQRG-OH),solubility,[1]; pH 7.4,≥ 15 mg/mL
same,solubility,"[1]; pH 7.4, aqueous buffer",≥ 30 mg/mL
same,fraction unbound,[2],0.001
same,fraction unbound,[3],0.0012
CC[C@H](C)[C@H](NC(=O)[C@H](CO)NC(=O)[C@H](Cc1ccc(O)cc1)NC(=O)[C@H](CC(=O)O)NC(=O)[C@H](CO)NC(=O)[C@@H](NC(=O)[C@H](Cc1ccccc1)NC(=O)[C@@H](NC(=O)CNC(=O)[C@H](CCC(=O)O)NC(=O)C(C)(C)NC(=O)[C@H](Cc1ccc(O)cc1)NC)[C@@H](C)O)[C@@H](C)CC)C(=O)N[C@@H](C)C(=O)N[C@@H](CC(C)C)C(=O)N[C@@H](CC(=O)O)C(=O)N[C@@H](CCCNC(=N)N)C(=O)NC(C)(C)C(=O)N[C@@H](Cc1c[nH]cn1)C(=O)N[C@@H](CCC(N)=O)C(=O)NC(C)(C)C(=O)N[C@@H](CC(N)=O)C(=O)N[C@@H](Cc1ccccc1)C(=O)N[C@H](C(=O)N[C@@H](CC(N)=O)C(=O)N[C@@H](Cc1c[nH]c2ccccc12)C(=O)N[C@@H](CC(C)C)C(=O)N[C@@H](CC(C)C)C(=O)N[C@@H](C)C(=O)N[C@@H](CCCCNC(=O)COCCOCCNC(=O)COCCOCCNC(=O)CC[C@H](NC(=O)CC[C@H](NC(=O)CCCCCCCCCCCCCCCCC(=O)O)C(=O)O)C(=O)O)C(=O)N[C@@H](CCCNC(=N)N)C(N)=O)C(C)C [Compound 19] (H-[NMeY][Aib]EGTFISDYSIALDR[Aib]HQ[Aib]NFVNWLLAK([AEEA-AEEA-γGlu-γGlu-C18 diacid])R-NH2),solubility,[1]; pH 7.4,≥ 15 mg/mL
same,solubility,"[1]; pH 7.4, aqueous buffer",≥ 30 mg/mL
same,fraction unbound,[2],0.0011
same,fraction unbound,[3],0.0005
